Test results from paper PMC9833666, “Designing and identifying β-hairpin peptide macrocycles with antibiotic potential” (Science Advances, 2023).
Bridge positions count the residues as written; N and C are the ends. Peptide text beside a SMILES is read from it.

System: Escherichia coli W3110
Type: cell-based
Settings: for Ec W3110 MIC MH: E. coli W3110, MH medium; for Ec W3110 MIC RPMI: E. coli W3110, RPMI medium

Structure (SMILES)	Ec W3110 MIC MH [µg/mL]	Ec W3110 MIC RPMI [µg/mL]	W3110 MIC MH [µg/mL]	W3110 MIC RPMI [µg/mL]	W3110 MIC [µg/mL]
CC[C@H](C)[C@@H]1NC(=O)[C@H](CCCNC(=N)N)NC(=O)[C@H](CC(C)C)NC(=O)[C@@H](N)CSSC[C@@H](C(=O)O)NC(=O)[C@H](C(C)C)NC(=O)[C@H](CCC(N)=O)NC(=O)[C@H](CC(C)C)NC(=O)[C@H](CO)NC(=O)[C@H](C(C)C)NC(=O)[C@H](CCCCN)NC(=O)[C@H](CC(C)C)NC(=O)CNC(=O)[C@H](CCCNC(=N)N)NC(=O)[C@H](CCCNC(=N)N)NC(=O)[C@H](CCCNC(=N)N)NC(=O)[C@H](CC(N)=O)NC(=O)[C@H](CC(N)=O)NC(=O)[C@H](CC(C)C)NC(=O)[C@H](CCCNC(=N)N)NC1=O [SySA-30] (H-CLRIRLNNRRRGLKVSLQVC-OH; disulfide 1-20; N-terminus and C-terminus assumed)	64	8	64	8	
CC[C@H](C)[C@@H]1NC(=O)[C@H](CC(=O)O)NC(=O)[C@H](C(C)C)NC(=O)[C@H](CCCCN)NC(=O)[C@H]([C@@H](C)CC)NC(=O)[C@H](CCCNC(=N)N)NC(=O)[C@@H](N)CSSC[C@@H](C(=O)O)NC(=O)[C@H](CCC(=O)O)NC(=O)[C@H](CC(C)C)NC(=O)[C@H](CCC(N)=O)NC(=O)[C@H](CC(C)C)NC(=O)[C@H](CCCNC(=N)N)NC(=O)[C@H](C(C)C)NC(=O)[C@H](CCCNC(=N)N)NC(=O)CNC(=O)[C@H](CCCNC(=N)N)NC(=O)[C@H](CCCNC(=N)N)NC(=O)[C@H](CC(=O)O)NC(=O)[C@H](CC(=O)O)NC1=O [SyRC-7] (H-CRIKVDIDDRRGRVRLQLEC-OH; disulfide 1-20)					>256
CC(C)C[C@@H]1NC(=O)[C@H](CCCNC(=N)N)NC(=O)[C@H](CCCNC(=N)N)NC(=O)[C@H](CCCNC(=N)N)NC(=O)CNC(=O)[C@H](CC(N)=O)NC(=O)[C@H](CC(N)=O)NC(=O)[C@H](C(C)C)NC(=O)[C@H](CCCNC(=N)N)NC(=O)[C@H](C(C)C)NC(=O)[C@H](CCCNC(=N)N)NC(=O)[C@H](C(C)C)NC(=O)[C@@H](N)CSSC[C@@H](C(=O)O)NC(=O)[C@H](C(C)C)NC(=O)[C@H](CCC(N)=O)NC(=O)[C@H](CC(C)C)NC(=O)[C@H](CO)NC(=O)[C@H](C(C)C)NC(=O)[C@H](CCCCN)NC1=O [SySA-79] (H-CVRVRVNNGRRRLKVSLQVC-OH; disulfide 1-20; N-terminus and C-terminus assumed)	64	32	64	32	
CC[C@H](C)[C@@H]1NC(=O)[C@H](CCCNC(=N)N)NC(=O)[C@H](C(C)C)NC(=O)[C@H](CCCNC(=N)N)NC(=O)[C@@H](N)CSSC[C@@H](C(=O)O)NC(=O)[C@H](CCC(N)=O)NC(=O)[C@H](C(C)C)NC(=O)[C@H](CCC(N)=O)NC(=O)[C@H](CC(C)C)NC(=O)[C@H](CCCNC(=N)N)NC(=O)[C@H](C(C)C)NC(=O)[C@H]([C@@H](C)O)NC(=O)CNC(=O)[C@H](CO)NC(=O)CNC(=O)[C@H](CC(=O)O)NC(=O)[C@H](CC(N)=O)NC(=O)[C@H](C(C)C)NC(=O)[C@H](CC(N)=O)NC1=O [SyRC-10] (H-CRVRINVNDGSGTVRLQVQC-OH; disulfide 1-20)					>256
CC[C@H](C)[C@@H]1NC(=O)[C@H](CCCNC(=N)N)NC(=O)[C@H](CC(C)C)NC(=O)[C@@H](N)CSSC[C@@H](C(=O)O)NC(=O)[C@H](C(C)C)NC(=O)[C@H](CCC(N)=O)NC(=O)[C@H](C(C)C)NC(=O)[C@H]([C@@H](C)O)NC(=O)[C@H]([C@@H](C)CC)NC(=O)[C@H](CCCNC(=N)N)NC(=O)[C@H](C(C)C)NC(=O)CNC(=O)CNC(=O)[C@H](CCCNC(=N)N)NC(=O)[C@H](CCCNC(=N)N)NC(=O)[C@H](CC(N)=O)NC(=O)[C@H](CC(N)=O)NC(=O)[C@H](C(C)C)NC(=O)[C@H](CCCNC(=N)N)NC1=O [SyRA-2] (H-CLRIRVNNRRGGVRITVQVC-OH; disulfide 1-20)					>256
